{"source": "paper PMC3608651", "about": "“A Broad Profile of Co-Dominant Epitopes Shapes the Peripheral Mycobacterium tuberculosis Specific CD8+ T-Cell Immune Response in South African Patients with Active Tuberculosis” (PLoS ONE, 2013)", "key": {"[1]": {"target": "T1, HLA-A*02:01 (Homo sapiens, UniProt P04439, D140Y/D185E/D98H/E176V/E277Q/G131W/G231S/I119V/I121R/I166T/I218V/L300P/L318F/N151K/N90K/P208A/P217A/Q86G/Q94H/R138H/R169H/T345S)", "conditions": "cited from earlier work"}, "[2]": {"target": "T2, HLA-B*58:01 (Homo sapiens, UniProt P01889, A329T/C349S/D201E/D98Y/E176V/E187L/E204Q/E69T/G107R/I218V/I90N/K202T/L105A/L119I/N104I/N87E/Q89R/Q94S/R106L/R155S/R180L/R86G/S101N/S121R/S35A/S48A/T118I/V127L/V306I/V36M/Y140S/Y91M)", "type": "binding"}, "[3]": {"target": "T3, HLA-A*24:02 (Homo sapiens, UniProt P04439, D101N/D140Y/D185E/E176V/E190D/F33S/G103R/G107R/I119L/I121M/I306V/K335N/L105A/L180Q/L300P/N151K/N90K/Q86E/Q94H/R106L/R138H/R89G/T104I/T345S/V100E/W191G/Y123F)", "conditions": "cited from earlier work"}, "[4]": {"target": "T4, HLA-A*30:02 (Homo sapiens, UniProt P04439, D101N/D140H/D185E/E176R/F33S/G80R/H175R/K168Q/Q94H/R138E/R41S/V100E)", "conditions": "cited from earlier work"}, "[5]": {"target": "T1, HLA-A*02:01", "conditions": "cited from earlier work", "remark": "listed apart in the source"}, "[6]": {"target": "T4, HLA-A*30:02", "conditions": "cited from earlier work", "remark": "listed apart in the source"}, "[7]": {"target": "T5, HLA-A*30:01 (Homo sapiens, UniProt P04439, D140H/D185E/E176W/F33S/G80R/H175R/K168Q/R138E/R41S)", "conditions": "cited from earlier work"}, "[8]": {"target": "T5, HLA-A*30:01", "conditions": "cited from earlier work", "remark": "listed apart in the source"}, "[9]": {"target": "HLA-A*68:01 (Homo sapiens, UniProt P04439, A269V/D185E/E176V/E277Q/E87N/F33Y/G231S/I121M/I166T/I218V/L180W/L300P/L318F/N151K/P208A/P217A/Q86R/R169H/T345S)", "type": "binding", "conditions": "percent relative the binding of positive control peptide […]; duplicated experiments; positive binder >40%"}, "[10]": {"target": "T3, HLA-A*24:02", "conditions": "percent relative the binding of a positive control peptide; […]; cited from earlier work"}, "[11]": {"target": "T6, HLA-C*07:01 (Homo sapiens, UniProt P10321, K90N/S123Y)", "type": "binding", "conditions": "percent relative the binding of positive control peptide […]; duplicated experiments; positive binder >40%"}, "[12]": {"target": "T6, HLA-C*07:01", "assay": "off-rate assay (t1/2)", "type": "binding", "conditions": "time points 0-8 h"}, "[13]": {"target": "T7, HLA-B*07:02 (Homo sapiens, UniProt P01889)", "conditions": "cited from earlier work"}, "[14]": {"target": "T5, HLA-A*30:01", "conditions": "cited from earlier work", "remark": "listed apart in the source"}, "[15]": {"target": "T6, HLA-C*07:01", "assay": "affinity assay (ED50)", "type": "binding"}, "[16]": {"target": "T3, HLA-A*24:02", "conditions": "cited from earlier work", "remark": "listed apart in the source"}, "[17]": {"target": "T2, HLA-B*58:01", "type": "binding", "conditions": "time points 0-8 h"}, "[18]": {"target": "T7, HLA-B*07:02", "conditions": "cited from earlier work", "remark": "listed apart in the source"}, "[19]": {"target": "T1, HLA-A*02:01", "conditions": "cited from earlier work", "remark": "listed apart in the source"}, "[20]": {"target": "T2, HLA-B*58:01", "type": "binding", "conditions": "percent relative the binding of positive control peptide […]; duplicated experiments; positive binder >40%"}, "[21]": {"target": "T4, HLA-A*30:02", "conditions": "cited from earlier work", "remark": "listed apart in the source"}, "[22]": {"target": "T7, HLA-B*07:02", "conditions": "cited from earlier work", "remark": "listed apart in the source"}, "[23]": {"conditions": "percent relative the binding of a positive control peptide, […]"}, "[24]": {"conditions": "percent relative the binding of a positive control peptide, wild-type epitopes marked **"}}, "note": "Where two headings read alike, the source gives them in different places. Marks after values point to notes of the source that are not given here."}
{"sequence": "IMYNYPAML [Rv0288_4–12]", "values": [{"measurement": "O-rate A*02:01 (t1/2)", "setting": "[1]", "result": 26.9, "unit": "h"}, {"measurement": "Aff B*58:01 (ED50)", "setting": "[2]", "result": 200, "unit": "nM"}, {"measurement": "Aff A*24:02 (ED50)", "setting": "[3]", "result": 100, "unit": "nM"}, {"measurement": "Bind A*30:02", "setting": "[4]", "result": "91** percent"}, {"measurement": "Aff A*02:01 (ED50)", "setting": "[5]", "result": 800, "unit": "nM"}, {"measurement": "Aff A*30:02 (ED50)", "setting": "[6]", "result": 8, "unit": "nM"}, {"measurement": "Bind A*30:01", "setting": "[7]; [23]", "result": "146** percent"}, {"measurement": "Aff A*30:01 (ED50)", "setting": "[8]", "result": 5000, "unit": "nM"}, {"measurement": "Bind A*68:01", "setting": "[9]", "result": 0, "unit": "%"}, {"measurement": "Bind A*24:02", "setting": "[10]", "result": "107* percent"}, {"measurement": "Bind C*07:01", "setting": "[11]", "result": 67, "unit": "%"}, {"measurement": "O-rate C*07:01 (t1/2)", "setting": "[12]", "result": 0.2, "unit": "h"}, {"measurement": "O-rate B*07:02 (t1/2)", "setting": "[13]", "result": 1.6, "unit": "h"}, {"measurement": "O-rate A*30:01 (t1/2)", "setting": "[14]", "result": 0.5, "unit": "h"}, {"measurement": "Aff C*07:01 (ED50)", "setting": "[15]", "result": 200, "unit": "nM"}, {"measurement": "O-rate A*24:02 (t1/2)", "setting": "[16]", "result": 1.6, "unit": "h"}, {"measurement": "O-rate B*58:01 (t1/2)", "setting": "[17]", "result": 1.0, "unit": "h"}, {"measurement": "Bind B*07:02", "setting": "[18]; [23]", "result": "35* percent"}, {"measurement": "Bind A*02:01", "setting": "[19]; [23]", "result": "94* percent"}, {"measurement": "Bind B*58:01", "setting": "[20]", "result": 110, "unit": "%"}, {"measurement": "O-rate A*30:02 (t1/2)", "setting": "[21]", "result": 3.1, "unit": "h"}, {"measurement": "Aff B*07:02 (ED50)", "setting": "[22]", "result": 30000, "unit": "nM"}]}
{"sequence": "LVRAYHAMS [Rv0288_65–73wt]", "values": [{"measurement": "Bind A*30:02", "setting": "[4]; [24]", "result": "75** percent"}, {"measurement": "Aff A*30:02 (ED50)", "setting": "[6]; wild-type epitopes marked **", "result": 2000, "unit": "nM"}, {"measurement": "Bind A*30:01", "setting": "[7]; [24]", "result": "158** percent"}, {"measurement": "Aff A*30:01 (ED50)", "setting": "[8]; wild-type epitopes marked **", "result": 2000, "unit": "nM"}, {"measurement": "O-rate A*30:01 (t1/2)", "setting": "[14]; wild-type epitopes marked **", "result": 1.8, "unit": "h"}, {"measurement": "O-rate A*30:02 (t1/2)", "setting": "[21]; wild-type epitopes marked **", "result": 1.0, "unit": "h"}]}
{"sequence": "QIMYNYPAM [Rv0288_3–11wt]", "values": [{"measurement": "O-rate A*02:01 (t1/2)", "setting": "[1]", "result": 1.1, "unit": "h"}, {"measurement": "Aff B*58:01 (ED50)", "setting": "[2]", "result": 10000, "unit": "nM"}, {"measurement": "Aff A*24:02 (ED50)", "setting": "[3]", "result": 1000, "unit": "nM"}, {"measurement": "Bind A*30:02", "setting": "[4]; [23]", "result": "90** percent"}, {"measurement": "Aff A*02:01 (ED50)", "setting": "[5]", "result": 1000, "unit": "nM"}, {"measurement": "Aff A*30:02 (ED50)", "setting": "[6]", "result": 40, "unit": "nM"}, {"measurement": "Bind A*30:01", "setting": "[7]", "result": "163** percent"}, {"measurement": "Aff A*30:01 (ED50)", "setting": "[8]", "result": 4000, "unit": "nM"}, {"measurement": "Bind A*24:02", "setting": "[10]", "result": "55* percent"}, {"measurement": "O-rate B*07:02 (t1/2)", "setting": "[13]", "result": 1.5, "unit": "h"}, {"measurement": "O-rate A*30:01 (t1/2)", "setting": "[14]", "result": 0.8, "unit": "h"}, {"measurement": "O-rate A*24:02 (t1/2)", "setting": "[16]", "result": 0.1, "unit": "h"}, {"measurement": "O-rate B*58:01 (t1/2)", "setting": "[17]", "result": 0.4, "unit": "h"}, {"measurement": "Bind B*07:02", "setting": "[18]", "result": "28* percent"}, {"measurement": "Bind A*02:01", "setting": "[19]", "result": "68* percent"}, {"measurement": "Bind B*58:01", "setting": "[20]", "result": 34, "unit": "%"}, {"measurement": "O-rate A*30:02 (t1/2)", "setting": "[21]", "result": 1.1, "unit": "h"}, {"measurement": "Aff B*07:02 (ED50)", "setting": "[22]", "result": 800000, "unit": "nM"}]}
{"sequence": "RAYHAMSST [Rv0288_67–75wt]", "values": [{"measurement": "Aff B*58:01 (ED50)", "setting": "[2]", "result": 10000, "unit": "nM"}, {"measurement": "Bind A*30:02", "setting": "[4]; [23]", "result": "73** percent"}, {"measurement": "Aff A*30:02 (ED50)", "setting": "[6]", "result": 1000, "unit": "nM"}, {"measurement": "Bind C*07:01", "setting": "[11]", "result": 35, "unit": "%"}, {"measurement": "O-rate C*07:01 (t1/2)", "setting": "[12]", "result": 0.2, "unit": "h"}, {"measurement": "O-rate B*07:02 (t1/2)", "setting": "[13]", "result": 0.8, "unit": "h"}, {"measurement": "Aff C*07:01 (ED50)", "setting": "[15]", "result": 10000, "unit": "nM"}, {"measurement": "O-rate B*58:01 (t1/2)", "setting": "[17]", "result": 0.2, "unit": "h"}, {"measurement": "Bind B*07:02", "setting": "[18]; [23]", "result": "39* percent"}, {"measurement": "Bind B*58:01", "setting": "[20]", "result": 39, "unit": "%"}, {"measurement": "O-rate A*30:02 (t1/2)", "setting": "[21]", "result": 1.2, "unit": "h"}, {"measurement": "Aff B*07:02 (ED50)", "setting": "[22]", "result": 20000, "unit": "nM"}]}
